Test results taken from patent EP4559898A1, “NOVEL IONIZABLE CATIONIC LIPIDS CONTAINING THIOETHER LINKAGE” (AldexChem Kft., priority 2023, dated 2025).

Key:
[1] = tested on: HeLa; test: Transfection efficiency with Luciferase-mRNA (SecNLuc), Nano-Glo assay; format: cell-based; details: 24 hours, luminescence (Nano-Glo); for Transfection 10 ng mRNA: 10 ng SecNLuc mRNA/well; for Transfection 50 ng mRNA: 50 ng SecNLuc mRNA/well; for Transfection 100 ng mRNA: 100 ng SecNLuc mRNA/well
Experimental: • 1. Prepare mRNA solution by adding 100 ng mRNA (SecNLuc, #P009024, RiboPro) to 5 µl Opti-MEM • multiply by number of wells, include different concentrations and add 10% extra • a standard set-up we use is 100 ng - 50 ng - 10 ng mRNA/well in triplicate, which would need […] mRNA (includes 10% extra)
• 2. (If applicable) Prepare different concentrations in Opti-MEM (for instance 100/50/10 ng). • 3. Add 10 µl to each well and mix carefully by pipetting. • 4. Mix by swirling the plate horizontally at modest speed. Reverse in direction 3 times. • 5. Incubate for 24 hours (incubator).
This protocol is applied to measure luciferase activity for secreted NanoLuc and is based on the protocol by Promega (Nano-Glo® Luciferase Assay System #N1110-1150). The protocol is designed for a 384-wells plate, but volumes can be changed accordingly for other plates.
• 1. Plate cells (HeLa) in 96-well plate, grow until 80% confluent and transfect with SecNanoLuc mRNA and incubate for the desired period (24h). • 2. After incubation, the translated protein is accumulated in the medium. Transfer medium to a new plate or tubes . • 3. Transfer 12 µl of each sample to a black-walled, clear-bottom 384-well plate Black-walled plates are important to prevent shine-through of luminescence from other wells; alternatively, multiple wells between samples can be left empty. • 4. Set-up plate reader • 5. Prepare the desired amount of Nano-Gio® Luciferase Assay Reagent by combining one volume of Nano-Glo® Luciferase Assay Substrate with 50 volumes of Nano-Glo® Luciferase Assay Buffer: • a. composition: 100 mM MES pH 6; 1 mM EDTA; 0.5% […]; 150 mM KCl; 1 mM DTT; 35 mM Thiourea; • b. briefly spin tubes containing substrate in a microcentrifuge before use. • 6. Add and mix (by pipetting) 12 µl Nano-Glo® Luciferase Assay Reagent per well • Wait approximately 3 minutes before measuring luminescence. The luminescence intensity will decay gradually, with a signal half-life of approximately 120 minutes at room temperature. • 7. Measure luminescence in plate reader using standard protocol luciferase (this includes mixing sample in plate reader)

[2] = Cell viability assessment with Resazurin assay; format: cell-based; details: human, hela cells, average over all doses, percent of OptiMEM-only control, read-out: Cell Viability % (Average metabolic rate over all doses, Resazurin)
Excerpt: This protocol is used to determine the metabolic activity of cells as a measure for cell viability after exposure to potentially toxic substances. Resazurin is converted in mitochondria by reduction to resorufin, which has a much higher fluorescence at ~600 nm compared to unconverted resazurin. A lower amount/percentage of conversion is correlated with reduced cellular metabolism and indirectly to cellular death and toxicity. Care must be taken with interpretation of the read-out, as 50% reduction in resazurin conversion may mean 50% reduction of cellular metabolism of 100% alive cells, or 50% of cells dead, and any combination in between.
• 1. Prepare 0.25 mg/ml stock solution resazurin in fresh cell culture medium. Resazurin is auto-reducing over time in solution, especially in medium, and fresh stocks should be prepared every 2-3 days. Stocks should be stored at 4°C and protected from light. For HeLa cells, DMEM/F12 with 10% FCS is used. • 2. Dilute stock solution 10x in fresh cell culture medium to 0.025 mg/ml -> ready for application on cells. For HeLa cells, DMEM/F12 with 10% FCS is used. • 3. Collect 96-well plate and replace cell-culture spent medium with 100 µl per well resazurin solution. Add some resazurin solution for background measurement in wells not containing cells. • 4. Incubate for 50 minutes in incubator at 37°C, 5% CO2, 95% RH. • 5. Transfer resazurin solution to a fresh 96- or 384-well plate. • 6. Measure in plate reader using 540/25 nm (excitation) and 610/40 nm (emission) using standard settings (PTM low/OD-1.0). • 7. Subtract the average background measurement from all samples. Set the average of the negative controls (well receiving OptiMEM only during transfection) to 100% and express all values as percentage of the control activity. Typically, at lower levels of treatment, elevation of metabolic activity is shown, whereas for toxic substances, at toxic concentrations sigmoidal curves can be obtained, with lower activity indicating higher toxicity.

SMILES | Transfection 10 ng mRNA [1] | Transfection 50 ng mRNA [1] | Transfection 100 ng mRNA [1] | viability at 24 h [2] [%]
CCCCCCCCCCSC(CCCC)C(=O)OCCCCCCN(CCCCCCOC(=O)C(CCCC)SCCCCCCCCCC)CCC1CCCN1C (centres unmarked) [Example 5, ((2-(1-methylpyrrolidin-2-yl)ethyl)azanediyl)bis(hexane-6,1-diyl) bis(2-(decylthio)hexanoate)] | 4,17E+05 | 3,34E+06 | 6,52E+06 | 97
CCCCCCCCCCCCCCSCC(=O)OCCCCCCN(CCCCO)CCCCCCOC(=O)CSCCCCCCCCCCCCCC [Example 10, ((4-hydroxybutyl)azanediyl)bis(hexane-6,1-diyl) bis(2-(tetradecylthio)acetate)] | 2,92E+05 | 3,57E+06 | 1,10E+07 | 99
CCCCCCCSC(CCCCCC)C(=O)OCCCCCCN(CCCCO)CCCCCCOC(=O)C(CCCCCC)SCCCCCCC (centres unmarked) [Example 9, ((4-hydroxybutyl)azanediyl)bis(hexane-6,1-diyl) bis(2-(heptylthio)octanoate)] | 2,79E+06 | 1,36E+07 | 1,43E+07 | 106
CCCCCCCCCCSC(CCCCCCCC)C(=O)OCCCCCCN(CCCCO)CCCCCCOC(=O)C(CCCCCCCC)SCCCCCCCCCC (centres unmarked) [Example 7, ((4-hydroxybutyl)azanediyl)bis(hexane-6,1-diyl) bis(2-(decylthio)decanoate)] | 1,62E+06 | 1,47E+07 | 2,01E+07 | 106
CCCCCCCCCCSC(CCCCCC)C(=O)OCCCCCCN(CCCCO)CCCCCCOC(=O)C(CCCCCC)SCCCCCCCCCC (centres unmarked) [Example 8, ((4-hydroxybutyl)azanediyl)bis(hexane-6,1-diyl) bis(2-(decylthio)octanoate)] | 2,80E+06 | 1,36E+07 | 1,11E+07 | 104
CCCCCCCCC(SCCCCC)C(=O)OCCCCCCN(CCCCO)CCCCCCOC(=O)C(CCCCCCCC)SCCCCC (centres unmarked) [Example 2, ((4-hydroxybutyl)azanediyl)bis(hexane-6,1-diyl) bis(2-(pentylthio)decanoate)] | 2,40E+06 | 1,60E+07 | 1,39E+07 | 94
CCCCCCCCCCSC(CCCC)C(=O)OCCCCCCCCN(CCCCO)CCCCCCCCOC(=O)C(CCCC)SCCCCCCCCCC (centres unmarked) [Example 3, ((4-hydroxybutyl)azanediyl)bis(octane-8,1-diyl) bis(2-(decylthio)hexanoate)] | 9,69E+05 | 1,02E+07 | 1,37E+07 | 103
CCCCCCCCC(CCCCCC)C(=O)OCCCCCCN(CCCCO)CCCCCCOC(=O)C(CCCCCC)CCCCCCCC (centres unmarked) [ALC-0315 ref., reference compound] | 3,21E+06 | 1.47E+07 | 1,04E+07 | 96
CCCCCCCCCCSC(CCCC)C(=O)OCCCCCCN(CCO)CCCCCCOC(=O)C(CCCC)SCCCCCCCCCC (centres unmarked) [Example 4, ((2-hydroxyethyl)azanediyl)bis(hexane-6,1-diyl) bis(2-(decylthio)hexanoate)] | 2,53E+06 | 1,23E+07 | 8,17E+06 | 98
CCCCCCCCCCSC(CCCC)C(=O)OCCCCCCN(CCCCO)CCCCCCOC(=O)C(CCCC)SCCCCCCCCCC (centres unmarked) [Example 1, ((4-hydroxybutyl)azanediyl)bis(hexane-6,1-diyl) bis(2-(decylthio)hexanoate)] | 3,81E+06 | 1,83E+07 | 1,69E+07 | 90
CCCCCCCCC(SCCCCCCC)C(=O)OCCCCCCN(CCCCO)CCCCCCOC(=O)C(CCCCCCCC)SCCCCCCC (centres unmarked) [Example 6, ((4-hydroxybutyl)azanediyl)bis(hexane-6,1-diyl) bis(2-(heptylthio)decanoate)] | 3,47E+06 | 1,83E+07 | 2,52E+07 | 101
